Here are results for eleven compounds from patent US12240857B2 (priority 2017, dated 2025).

Like-named read-outs stand apart in the source and are kept apart here.

Data set [1] in a line: in vitro. Conditions: African green monkey.
Data set [2] concerns wild-type Sudan Gulu.
Data set [3] relates to wild-type Sudan Gulu. Description: microbe, parasite or virus in culture. Conditions: Sudan ebolavirus, HeLa, read-out: Sudan Gulu EC50.
Data set [4] concerns BDBV mucin-domain-deleted glycoprotein pseudotyped VSV. Description: microbe, parasite or virus in culture. In kind it is cell-based, Bundibugyo ebolavirus. The conditions noted are these: Vesicular stomatitis virus, Vero.
Data set [5] concerns wild-type Ebola Zaire. Description: microbe, parasite or virus in culture. The conditions noted are these: Zaire ebolavirus, HeLa, read-out: Ebola Zaire EC50.
Data set [6] concerns EBOV mucin-domain-deleted glycoprotein pseudotyped VSV. Description: microbe, parasite or virus in culture. The class given is cell-based, Zaire ebolavirus. Conditions: Zaire ebolavirus, Vero.
The test system of data set [7] is wild-type Ebola Zaire.
Data set [8] is described as follows: in vitro. The conditions noted are these: mouse, microsomes.
Data set [9] can be described thus: in vitro. Conditions: human, microsomes.
For data set [10], the system named is full-length LASV glycoprotein pseudotyped VSV. Description: microbe, parasite or virus in culture. In kind it is cell-based, Lassa virus. Conditions: Vesicular stomatitis virus, read-out: EC50 Pseudotype Assays LASV.
The subject of data set [11] is full-length Ebola Zaire GP pseudotyped VSV (EBOV_FL). Description: microbe, parasite or virus in culture. The class given is cell-based. Conditions: Zaire ebolavirus, read-out: EC50 Pseudotype Assays EBOV_FL.
The subject of data set [12] is full-length Marburgvirus (MARV) GP pseudotyped VSV. Description: microbe, parasite or virus in culture. In kind it is cell-based, Marburg marburgvirus. Conditions: for EC50: Orthomarburgvirus, read-out: EC50 Pseudotype Assays MARV.
Data set [13] concerns parent VSV virus expressing the native VSV glycoprotein. Description: microbe, parasite or virus in culture. In kind it is cell-based. The conditions noted are these: Vesicular stomatitis virus, Vero, read-out: EC50 Pseudotype Assays VSV.
Data set [14] can be described thus: in vitro. Conditions: monkey, microsomes.
The test system of data set [15] is full-length SUDV GP pseudotyped VSV. Description: microbe, parasite or virus in culture. The class given is cell-based, Sudan ebolavirus. The conditions noted are these: Vesicular stomatitis virus, read-out: EC50 Pseudotype Assays SUDV.
The test system of data set [16] is EBOV (Mayinga). Description: microbe, parasite or virus in culture. The conditions noted are these: for EC90: Zaire ebolavirus. In kind it is cell-based, Zaire ebolavirus.
Data set [17] deals with EBOV (Mayinga). Description: microbe, parasite or virus in culture. The class given is cell-based, Zaire ebolavirus.
For data set [18], the system named is native EBOV virus. The conditions noted are these: read-out: published EC50 against native EBOV virus; cited from earlier work.
For data set [19] the following is noted: human, in vivo; cited from earlier work.
Data set [20] concerns Ebola virus infection. The conditions noted are these: human, in vivo; cited from earlier work.
Setting [21] is: read-out: EC50 Pseudotype Assays BDBV.
[22] abbreviates: read-out: EC50 Pseudotype Assays EBOV.

The EC50 is the concentration needed to bring the measured effect to its halfway point. In the case of `CC12CC3CC(C(=O)N4CCCN(CCCN5CCCC5)CC4)(C1)CC(c1ccccc1)(C3)C2` (stereo not drawn) [Example A43], in data set [1] (CC50), the CC50 was found to be 1200 nM. The “Sudan Gulu SI (CC50/EC50)” value in [2] stood at 104. Further, the half-maximal effective concentration (EC50) in data set [3] was found to be 60 nM; in data set [4] (read-out: EC50 BDBV), 80 nM; in data set [5], 180 nM; in data set [6] (read-out: EC50 EBOV), 140 nM. Moreover, in [7], the “Ebola Zaire SI (CC50/EC50)” value was 36.3.

The half-life is the time needed for the level to fall by half in the phase considered. Take `O=C(NC1CCNCC1)C12CC3CC(C1)CC(c1ccccc1)(C3)C2` [Example A63]: the CC50 in data set [1] (CC50) and in data set [1] (Cytotox CC50) was more than 10000 nM each time. Besides, the half-life in data set [8] is more than 3.5 h; in [9], 4.3 h; in [14], 3.95 h. Also, the concentration for a half-maximal effect (EC50) in [10] was more than 10000 nM; in data set [11], 40 nM; in [4] (read-out: EC50 BDBV) it was 80 nM; in data set [4] (setting [21]) it was 80 nM; in [12], 2800 nM; in data set [13] it was more than 10000 nM. Also, the EC50 in data set [5] came to 390 nM; in [6] (read-out: EC50 EBOV) it was 80 nM; in data set [6] (setting [22]), 80 nM. Further, in data set [7], the “Ebola Zaire SI (CC50/EC50)” value is more than 16.

Consider `CC12CC3CC(C(=O)NC4CCNCC4)(C1)CC(c1ccccc1)(C3)C2` (stereo not drawn) [Example A68], for which the CC50 in data set [1] (CC50) and in data set [1] (Cytotox CC50) was more than 10000 nM each time. Also, the half-life is more than 4 h in data set [8], 3.12 h in data set [9] and 2.37 h in data set [14]. Besides, in data set [2], the “Sudan Gulu SI (CC50/EC50)” value came out at 181. Also, the EC50 is 130 nM in [3]; more than 10000 nM in data set [10]; 40 nM in [11]; 160 nM in [4] (read-out: EC50 BDBV); 170 nM in [4] (setting [21]); 2800 nM in [12]. Also, the concentration giving a half-maximal response (EC50) in data set [13] is more than 10000 nM; in [5] it was 180 nM; in data set [6] (read-out: EC50 EBOV) it was 35 nM; in [6] (setting [22]), 40 nM; in [15], 410 nM. Also, in data set [7], the “Ebola Zaire SI (CC50/EC50)” value was determined as 134.

As usually defined, the EC90 is the point of the concentration-response curve where the effect stands at 90%. Lower therefore signals an effect from little substance. Turning to `CCC12CC3CC(C(=O)NC4CCNCC4)(C1)CC(c1ccccc1)(C3)C2` (stereo not drawn) [Example A80], the CC50 in data set [1] (CC50) was 10000 nM; in data set [1] (Cytotox CC50), more than 10000 nM. The half-life in data set [8] is more than 2 h; in [9], 1.72 h; in [14] it was 1.48 h. Further, the “Sudan Gulu SI (CC50/EC50)” value in data set [2] is 130. Also, the EC50 in [3] is 140 nM; in data set [10] it was more than 10000 nM; in data set [11], 40 nM; in data set [4] (read-out: EC50 BDBV), 50 nM; in [4] (setting [21]) it was 60 nM; in [12], 1100 nM. For the same compound, the EC50 in data set [13] was more than 10000 nM; in [5] it was 130 nM; in [6] (read-out: EC50 EBOV) it was 10 nM; in [6] (setting [22]), 20 nM; in [15] it was 400 nM; in data set [17] (Zaire ebolavirus, Vero) it was 890 nM. For the same compound, the “SI90 (CC50/EC90)” value in [16] came out at 9.6. Besides, the EC90 in data set [16] was found to be 8900 nM. In addition, in [7], the “Ebola Zaire SI (CC50/EC50)” value amounted to 137. The “SI50 (CC50/EC50)” value in [17] amounted to 95.6.

On to `O=C(NC1CCNCC1)C1C2CC3CC1CC(c1ccccc1)(C3)C2` (stereo not drawn) [Example A81], for which, in data set [1] (CC50), the CC50 came to 13900 nM. For the same compound, the “Sudan Gulu SI (CC50/EC50)” value in [2] was determined as 266. Also, the half-maximal effective concentration (EC50) was found to be 210 nM in data set [3], 110 nM in data set [4] (read-out: EC50 BDBV), 1110 nM in [5] and 180 nM in [6] (read-out: EC50 EBOV). Also, in data set [7], the “Ebola Zaire SI (CC50/EC50)” value turned out to be 48.9.

In [1] (CC50), `CCC12CC3CC(C(=O)N[C@H]4CC[C@H](N)CC4)(C1)CC(c1ccccc1)(C3)C2` (stereo partly drawn) [Example A85] showed a CC50 of 12100 nM. The half-life is more than 2 h in data set [8], more than 2 h in [9] and 1.4 h in data set [14]. Moreover, in data set [2], the “Sudan Gulu SI (CC50/EC50)” value is listed as 64. In addition, the EC50 amounted to 180 nM in [3], 96 nM in [4] (read-out: EC50 BDBV), 100 nM in [5] and 13 nM in data set [6] (read-out: EC50 EBOV). For the same compound, in [7], the “Ebola Zaire SI (CC50/EC50)” value amounted to 112.

`c1ccc(C23CC4CC(CC(CNC5CCNCC5)(C4)C2)C3)cc1` [Example C2, N-((3-phenyladamantan-1-yl)methyl)piperidin-4-amine] displayed a CC50 in data set [1] (CC50) of 3600 nM. The “Sudan Gulu SI (CC50/EC50)” value in data set [2] worked out at 109. The 50% effective concentration (EC50) is 60 nM in [3], 200 nM in [4] (read-out: EC50 BDBV), 250 nM in data set [5] and 250 nM in data set [6] (read-out: EC50 EBOV). Besides, in data set [7], the “Ebola Zaire SI (CC50/EC50)” value is 25.3.

Take `CC1CCN(CC(O)COc2ccc(C34CC5CC(CC(C5)C3)C4)cc2)CC1` (stereo not drawn) [Example D21, 1-[4-(adamantan-1-yl)phenoxy]-3-(4-methylpiperidin-1-yl)propan-2-ol]: the values for the CC50 in data set [1] (CC50) and in [1] (Cytotox CC50) were 1100 nM and 3700 nM, respectively. Also, in [2], the “Sudan Gulu SI (CC50/EC50)” value is given as 38.2. Moreover, the EC50 in [3] turned out to be 190 nM; in [10], 3000 nM; in data set [11], 110 nM; in data set [4] (24 h, read-out: EC50 BDBV) it was 110 nM; in data set [4] (setting [21]), 110 nM; in data set [12], 360 nM. Further, the EC50 worked out at 3700 nM in [13]; 150 nM in data set [5]; 50 nM in data set [6] (24 h, read-out: EC50 EBOV); 50 nM in [6] (setting [22]); 410 nM in data set [15]. Further, the “MARV pseudotyped virus EC50 concentration (in words)” value in data set [12] was “sub-micromolar”. The “Ebola Zaire SI (CC50/EC50)” value in [7] is reported as 48.1.

With `OCCN1CCN(CC(O)COc2ccc(C34CC5CC(CC(C5)C3)C4)cc2)CC1` (stereo not drawn) [Example D24, 1[4-(adamantan-1-yl)phenoxy]-3[4-(2-hydroxyethyl)piperazin-1-yl]propan-2-ol], the results for the CC50 in data set [1] (CC50) and in data set [1] (Cytotox CC50) were 4300 nM and more than 10000 nM, respectively. Moreover, the “Sudan Gulu SI (CC50/EC50)” value in data set [2] came to 78.7. Moreover, the EC50 in [3] is 260 nM; in [10] it was more than 10000 nM; in data set [11], 80 nM; in data set [4] (24 h, read-out: EC50 BDBV), 270 nM; in [4] (setting [21]) it was 270 nM; in data set [12] it was more than 10000 nM. The EC50 in data set [13] was more than 10000 nM; in data set [5], 440 nM; in data set [6] (24 h, read-out: EC50 EBOV), 80 nM; in data set [6] (setting [22]), 90 nM; in [15], 2430 nM. In data set [7], the “Ebola Zaire SI (CC50/EC50)” value is 45.6.

For the compound `CN(C)CCCNc1nc(C23CC4CC(CC(C4)C2)C3)cs1` [Example D29, (3-{[4-(adamantan-1-yl)-1,3-thiazol-2-yl]amino}propyl) dimethylamine], the CC50 was 9400 nM in [1] (CC50) and more than 10000 nM in data set [1] (Cytotox CC50). The “Sudan Gulu SI (CC50/EC50)” value in data set [2] was 203. Besides, the concentration for a half-maximal effect (EC50) in [3] was 300 nM; in data set [10], more than 10000 nM; in data set [11], 180 nM; in [4] (24 h, read-out: EC50 BDBV) it was 160 nM; in [4] (setting [21]), 160 nM; in [12], 660 nM. The concentration for a half-maximal effect (EC50) in data set [13] was more than 10000 nM; in data set [5], 920 nM; in data set [6] (24 h, read-out: EC50 EBOV), 170 nM; in data set [6] (setting [22]) it was 170 nM; in [15], 1440 nM. Also, in [12], the “MARV pseudotyped virus EC50 concentration (in words)” value is recorded as “sub-micromolar”. Besides, the “Ebola Zaire SI (CC50/EC50)” value in data set [7] came out at 66.1.

Regarding `NC(=O)c1nc(F)c[nH]c1=O` [favipiravir], the concentration giving a half-maximal response (EC50) in data set [18] is 67000 nM. In addition, in data set [16], the “SI90 (CC50/EC90)” value is 3 and the 90% effect level (EC90) was put at 333000 nM. Further, the half-life in humans in data set [19] was 1 to 4 h. In data set [20], the “drop in viral load” value is given as 3-4 log.
